Among the data in PubChem BioAssay (NCI) are GI50 and TGI values, retold here.

Where “and” joins values, the source holds several entries; their conditions need not be identical. Identical values can stand only once.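 The compound was tested at five concentrations on cells cultured in 96-well plates, with a 48-hour exposure period. GI50 = concentration required for 50% inhibition of growth. The concentration for full growth arrest is given as TGI.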

The first test concerns ACHN renal. Briefly: NCI-60 cell line screen, 48 h.
In the case of `N=C(N)c1ccc2nc(-c3cc(CC(=O)N[C@@H](CC(=O)O)C(=O)O)cc(-c4cc(S(N)(=O)=O)ccc4O)c3O)[nH]c2c1`, the GI50 was above 100 µM and the TGI was above 100 µM.
Take `CC1=C(C(=O)Nc2ccc(Cl)c(Cl)c2)C(c2cccc(Oc3ccccc3)c2)NC(=O)N1` (configuration not stated): the GI50 is 6.6 µM and the TGI turned out to be 17.3 µM.
As for `COc1ccc(O)c(C(=O)c2ccc(C(=O)N[C@H]3CCCNC[C@@H]3NC(=O)c3ccncc3)cc2)c1F`, the GI50 is 11.5 µM and the TGI was above 25 µM.
For the compound `O[C@H](c1cc(C(F)(F)F)nc2c(C(F)(F)F)cccc12)[C@@H]1CCCCN1`, the GI50 is 2.82 µM and the TGI is 10.7 µM.
Taken in the same sequence, the figures for `CCCOc1ccc2sc(NC(=O)OC)nc2c1` were above 25.1 µM and above 100 µM.
Compound `O=C(O)c1ccc(OCc2ccccc2)c(Cl)c1` had a TGI above 100 µM.
For the compound `OCCCNc1nccc(-c2c(-c3ccc(F)cc3)nn3cc(C(F)(F)F)ccc23)n1`, the GI50 was 9.23 µM and the TGI is above 25 µM.
Take `O=S(=O)(Nc1ccc(F)cc1F)c1ccc(-c2cnc(C3CC3)o2)cc1`: the GI50 was 1.62 µM and the TGI was determined as 31.2 µM.
As for `COc1cc(C(=O)N2CCN(c3ncccn3)CC2)c(N)cc1OCc1ccccc1`, the GI50 is above 100 µM and the TGI is above 100 µM.
`Cc1nc2sc3c(c2c(=O)[nH]1)CCCC3` gave a TGI above 100 µM.
On to `O=C1NC(=O)/C(=C\c2ccccc2)C2=C1CCCC2`, for which the GI50 was 5.78 µM and the TGI turned out to be 18.6 µM.
As to `C#COc1cccc(Nc2c(C#N)cnc3ncc(NC(=O)CCl)cc23)c1`, the GI50 was 22.9 µM and the TGI is above 62.5 µM.
Consider `CCCCCOc1ccc(/C=N/Nc2cc(C)nc3ccc(Br)cc23)cc1`, for which the GI50 is 1.77 µM and the TGI was 3.17 µM.
For `CC(=O)Oc1ccccc1C(=O)Nc1ncc([N+](=O)[O-])s1`, the GI50 is 2.74 µM; the TGI is 11.3 µM and > 100 µM.
For the compound `CCN(Cc1ccccc1C)c1ccc(CO)c(Cl)c1`, the GI50 was 15.7 µM and the TGI amounted to 39.4 µM.
Taken in the same sequence, the figures for `Cn1cc(C2=C(c3cccc(Br)c3)C(=O)NC2=O)c2ccccc21` were 14.5 µM and above 25 µM.
Regarding `COc1ccc(-c2ccc(-c3ccc(C(=N)N)s3)s2)cc1`, the GI50 was 0.19 µM and the TGI is 0.359 µM.
As for `COc1ccc(CCNC(=O)c2ccc(NC3=C(Cl)C(=O)N(Cc4ccccc4)C3=O)cc2)cc1OC`, the GI50 is 43 µM and the TGI was above 100 µM.
Consider `O=CN1CCN(CC(O)CN2CCCCC2)CC1` (configuration not stated), for which the TGI was above 100 µM.
As for `OCc1ccn2c1[C@@H](O)CC2`, the TGI was above 100 µM.

The subject of the next test is K-562 leukemia. Briefly: NCI-60 cell line screen, 48 h.
Turning to `N=C(N)c1ccc2nc(-c3cc(CC(=O)N[C@@H](CC(=O)O)C(=O)O)cc(-c4cc(S(N)(=O)=O)ccc4O)c3O)[nH]c2c1`, the GI50 is above 100 µM and the TGI was above 100 µM.
In the case of `CC1=C(C(=O)Nc2ccc(Cl)c(Cl)c2)C(c2cccc(Oc3ccccc3)c2)NC(=O)N1` (configuration not stated), the GI50 is 18.6 µM and the TGI is above 50 µM.
The corresponding values for `COc1ccc(O)c(C(=O)c2ccc(C(=O)N[C@H]3CCCNC[C@@H]3NC(=O)c3ccncc3)cc2)c1F` are 7.78 µM and above 25 µM.
As for `O[C@H](c1cc(C(F)(F)F)nc2c(C(F)(F)F)cccc12)[C@@H]1CCCCN1`, the GI50 was 2.87 µM and the TGI was found to be 9.17 µM.
In the case of `CCCOc1ccc2sc(NC(=O)OC)nc2c1`, the GI50 was 0.419 µM and the TGI was above 100 µM.
`O=C(O)c1ccc(OCc2ccccc2)c(Cl)c1` had a TGI above 100 µM.
As for `OCCCNc1nccc(-c2c(-c3ccc(F)cc3)nn3cc(C(F)(F)F)ccc23)n1`, the GI50 was 10.4 µM and the TGI is above 25 µM.
Consider `O=S(=O)(Nc1ccc(F)cc1F)c1ccc(-c2cnc(C3CC3)o2)cc1`, for which the GI50 is 0.211 µM and the TGI was above 100 µM.
In the case of `COc1cc(C(=O)N2CCN(c3ncccn3)CC2)c(N)cc1OCc1ccccc1`, the GI50 is above 100 µM and the TGI was above 100 µM.
Compound `Cc1nc2sc3c(c2c(=O)[nH]1)CCCC3` returned a TGI above 100 µM.
On to `O=C1NC(=O)/C(=C\c2ccccc2)C2=C1CCCC2`, for which the GI50 was 5.39 µM and the TGI was above 40.3 µM.
Taken in the same sequence, the figures for `C#COc1cccc(Nc2c(C#N)cnc3ncc(NC(=O)CCl)cc23)c1` were 25.9 µM and above 62.5 µM.
With `CCCCCOc1ccc(/C=N/Nc2cc(C)nc3ccc(Br)cc23)cc1`, the GI50 is 1.24 µM and the TGI is 2.83 µM.
Consider `CC(=O)Oc1ccccc1C(=O)Nc1ncc([N+](=O)[O-])s1`, for which the GI50 was 2.53 µM; the TGI was 18.8 µM and > 100 µM.
For `CCN(Cc1ccccc1C)c1ccc(CO)c(Cl)c1`, the GI50 was 3.1 µM and the TGI was found to be 13.8 µM.
As to `Cn1cc(C2=C(c3cccc(Br)c3)C(=O)NC2=O)c2ccccc21`, the GI50 was 8.65 µM and the TGI is above 25 µM.
`COc1ccc(-c2ccc(-c3ccc(C(=N)N)s3)s2)cc1`: the GI50 was 0.184 µM and the TGI was found to be 0.426 µM.
As for `COc1ccc(CCNC(=O)c2ccc(NC3=C(Cl)C(=O)N(Cc4ccccc4)C3=O)cc2)cc1OC`, the GI50 is 2.21 µM and the TGI is 5.21 µM.
Turning to `O=CN1CCN(CC(O)CN2CCCCC2)CC1` (configuration not stated), the TGI is above 100 µM.
The same measure, in the same setting: the same measure for `OCc1ccn2c1[C@@H](O)CC2`: above 100 µM.

A further test relates to KM12 colon. In words: NCI-60 cell line screen, 48 h.
For `N=C(N)c1ccc2nc(-c3cc(CC(=O)N[C@@H](CC(=O)O)C(=O)O)cc(-c4cc(S(N)(=O)=O)ccc4O)c3O)[nH]c2c1`, the GI50 was above 100 µM and the TGI is above 100 µM.
Take `CC1=C(C(=O)Nc2ccc(Cl)c(Cl)c2)C(c2cccc(Oc3ccccc3)c2)NC(=O)N1` (configuration not stated): the GI50 was 8.72 µM and the TGI was determined as 19.7 µM.
The corresponding values for `COc1ccc(O)c(C(=O)c2ccc(C(=O)N[C@H]3CCCNC[C@@H]3NC(=O)c3ccncc3)cc2)c1F` are 3.1 µM and above 16.5 µM.
As for `O[C@H](c1cc(C(F)(F)F)nc2c(C(F)(F)F)cccc12)[C@@H]1CCCCN1`, the GI50 was 1.63 µM and the TGI was determined as 3.34 µM.
With `CCCOc1ccc2sc(NC(=O)OC)nc2c1`, the GI50 was 0.627 µM and the TGI is above 100 µM.
Take `O=C(O)c1ccc(OCc2ccccc2)c(Cl)c1`: the TGI was above 100 µM.
`OCCCNc1nccc(-c2c(-c3ccc(F)cc3)nn3cc(C(F)(F)F)ccc23)n1`: the GI50 is 11.1 µM and the TGI is above 25 µM.
With `O=S(=O)(Nc1ccc(F)cc1F)c1ccc(-c2cnc(C3CC3)o2)cc1`, the GI50 was 0.485 µM and the TGI was determined as 28.5 µM.
Turning to `COc1cc(C(=O)N2CCN(c3ncccn3)CC2)c(N)cc1OCc1ccccc1`, the GI50 is above 100 µM and the TGI was above 100 µM.
`Cc1nc2sc3c(c2c(=O)[nH]1)CCCC3` yielded a TGI above 100 µM.
For the compound `O=C1NC(=O)/C(=C\c2ccccc2)C2=C1CCCC2`, the GI50 is 9.21 µM and the TGI was 22 µM.
Take `C#COc1cccc(Nc2c(C#N)cnc3ncc(NC(=O)CCl)cc23)c1`: the GI50 was 56.7 µM and the TGI is above 62.5 µM.
Taken in the same sequence, the figures for `CCCCCOc1ccc(/C=N/Nc2cc(C)nc3ccc(Br)cc23)cc1` were 1.74 µM and 3.19 µM.
As to `CC(=O)Oc1ccccc1C(=O)Nc1ncc([N+](=O)[O-])s1`, the GI50 was 3 µM.
Consider `CCN(Cc1ccccc1C)c1ccc(CO)c(Cl)c1`, for which the GI50 was 11.8 µM and the TGI worked out at 26.6 µM.
The corresponding values for `Cn1cc(C2=C(c3cccc(Br)c3)C(=O)NC2=O)c2ccccc21` are 8.43 µM and above 25 µM.
On to `COc1ccc(-c2ccc(-c3ccc(C(=N)N)s3)s2)cc1`, for which the GI50 is 0.19 µM and the TGI came out at 0.357 µM.
For `COc1ccc(CCNC(=O)c2ccc(NC3=C(Cl)C(=O)N(Cc4ccccc4)C3=O)cc2)cc1OC`, the GI50 was 23.5 µM and the TGI is above 100 µM.
For `O=CN1CCN(CC(O)CN2CCCCC2)CC1` (configuration not stated), the TGI is above 100 µM.
With `OCc1ccn2c1[C@@H](O)CC2`, the TGI is above 100 µM.

Another test relates to MDA-MB-435. Briefly: NCI-60 cell line screen, 48 h.
As to `N=C(N)c1ccc2nc(-c3cc(CC(=O)N[C@@H](CC(=O)O)C(=O)O)cc(-c4cc(S(N)(=O)=O)ccc4O)c3O)[nH]c2c1`, the GI50 was above 100 µM and the TGI was above 100 µM.
On to `CC1=C(C(=O)Nc2ccc(Cl)c(Cl)c2)C(c2cccc(Oc3ccccc3)c2)NC(=O)N1` (configuration not stated), for which the GI50 is 6.33 µM and the TGI was found to be 16.7 µM.
Taken in the same sequence, the figures for `COc1ccc(O)c(C(=O)c2ccc(C(=O)N[C@H]3CCCNC[C@@H]3NC(=O)c3ccncc3)cc2)c1F` were above 14.9 µM and above 25 µM.
For `O[C@H](c1cc(C(F)(F)F)nc2c(C(F)(F)F)cccc12)[C@@H]1CCCCN1`, the GI50 was 2.43 µM and the TGI stood at 7.07 µM.
Taken in the same sequence, the figures for `CCCOc1ccc2sc(NC(=O)OC)nc2c1` were 0.215 µM and 0.587 µM.
Regarding `O=C(O)c1ccc(OCc2ccccc2)c(Cl)c1`, the TGI is above 100 µM.
As to `OCCCNc1nccc(-c2c(-c3ccc(F)cc3)nn3cc(C(F)(F)F)ccc23)n1`, the GI50 was 10.1 µM and the TGI is above 25 µM.
As for `O=S(=O)(Nc1ccc(F)cc1F)c1ccc(-c2cnc(C3CC3)o2)cc1`, the GI50 is 0.14 µM and the TGI worked out at 2.72 µM.
As for `COc1cc(C(=O)N2CCN(c3ncccn3)CC2)c(N)cc1OCc1ccccc1`, the GI50 was above 100 µM and the TGI was above 100 µM.
As for `Cc1nc2sc3c(c2c(=O)[nH]1)CCCC3`, the TGI is above 100 µM.
As to `O=C1NC(=O)/C(=C\c2ccccc2)C2=C1CCCC2`, the GI50 was 1.82 µM and the TGI stood at 3.49 µM.
The corresponding values for `C#COc1cccc(Nc2c(C#N)cnc3ncc(NC(=O)CCl)cc23)c1` are above 62.5 µM and above 62.5 µM.
For the compound `CCCCCOc1ccc(/C=N/Nc2cc(C)nc3ccc(Br)cc23)cc1`, the GI50 is 1.76 µM and the TGI turned out to be 3.18 µM.
Turning to `CC(=O)Oc1ccccc1C(=O)Nc1ncc([N+](=O)[O-])s1`, the GI50 was 2.13 µM; the TGI is 7.58 µM and 59.7 µM.
As for `CCN(Cc1ccccc1C)c1ccc(CO)c(Cl)c1`, the GI50 is 3.67 µM and the TGI worked out at 15.4 µM.
With `Cn1cc(C2=C(c3cccc(Br)c3)C(=O)NC2=O)c2ccccc21`, the GI50 was 5.82 µM and the TGI was above 25 µM.
On to `COc1ccc(-c2ccc(-c3ccc(C(=N)N)s3)s2)cc1`, for which the GI50 is 0.179 µM and the TGI is 0.336 µM.
The corresponding values for `COc1ccc(CCNC(=O)c2ccc(NC3=C(Cl)C(=O)N(Cc4ccccc4)C3=O)cc2)cc1OC` are 15.8 µM and 43.8 µM.
The compound `O=CN1CCN(CC(O)CN2CCCCC2)CC1` (configuration not stated) returned a TGI above 100 µM.
